Calls of active or inactive are those of the source.
Legend:
[1] = biological target: T1, Sentrin-specific protease 1 (Homo sapiens, UniProt Q9P0U3); experiment: SENP1 catalytic domain blockers, concentration series – biochemical, kinetic FRET, dose response (AID 651697); assay type: functional; conditions: read-out: IC50_Mean
T1 sequence (Q9P0U3 whole entry): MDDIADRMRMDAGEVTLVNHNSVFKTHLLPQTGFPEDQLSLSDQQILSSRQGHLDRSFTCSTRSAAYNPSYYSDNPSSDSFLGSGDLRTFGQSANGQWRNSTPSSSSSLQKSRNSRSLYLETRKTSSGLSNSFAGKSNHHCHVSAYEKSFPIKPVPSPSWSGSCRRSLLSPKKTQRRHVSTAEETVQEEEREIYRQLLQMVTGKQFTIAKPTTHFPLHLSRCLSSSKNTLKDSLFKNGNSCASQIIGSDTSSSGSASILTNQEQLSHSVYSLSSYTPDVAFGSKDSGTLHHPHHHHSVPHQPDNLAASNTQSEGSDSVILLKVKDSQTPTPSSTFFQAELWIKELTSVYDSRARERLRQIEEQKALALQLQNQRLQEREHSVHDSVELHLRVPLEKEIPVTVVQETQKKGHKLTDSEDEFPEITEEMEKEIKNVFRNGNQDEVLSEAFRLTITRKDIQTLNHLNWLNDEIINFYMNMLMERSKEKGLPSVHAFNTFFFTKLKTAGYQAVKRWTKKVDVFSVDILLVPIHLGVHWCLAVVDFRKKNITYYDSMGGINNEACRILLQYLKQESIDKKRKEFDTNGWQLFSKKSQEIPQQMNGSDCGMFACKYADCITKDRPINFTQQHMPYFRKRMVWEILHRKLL

Cytochrome P450 2C9 = Cytochrome P450 2C9 (Homo sapiens, UniProt P11712)
Cytochrome P450 2C19 = Cytochrome P450 2C19 (Homo sapiens, UniProt P33261); experiment: Cytochrome panel assay with activity outcomes. Panel member name: p450-cyp2c19 Compounds with AC50 equal or less than 10 uM are considered active; assay type: functional; conditions: read-out: AC50
Cytochrome P450 2D6 = Cytochrome P450 2D6 (Homo sapiens, UniProt P10635);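 also: CYP2D6 member of a cytochrome P450 panel assay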
[2] = biological target: T1, Sentrin-specific protease 1; experiment: Dose response confirmation of small molecule inhibitors of the catalytic domain of the SUMO protease, SENP1 in a FRET assay.; assay type: functional; conditions: read-out: IC50_Mean
[3] = HIV-1 AD8 envelope cell-cell fusion blockers – cherry-pick, dose response (AID 652062); assay type: functional, cell-based;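 also: luciferase signal from cell-cell fusion driven by HIV-1 clade B AD8 Env; potency is for inhibitors of fusion seen as a drop in luminescence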
HEK293 [4] = experiment: cells; conditions: Homo sapiens
[5] = off-target signal loss in HeLa-CEM21 co-culture – HeLa F-luc CTL cells, cherry-picked, counter-screen for HIV-1 Env fusion inhibitor project, dose response (AID 652040); assay type: functional, cell-based;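 also: potency for signal decrease marking cytotoxic or nonspecific inhibition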
[6] = blockers of HIV-1 envelope-mediated cell-cell fusion – cherry-pick, dose response (AID 652057); assay type: functional, cell-based
[7] = blockers of HIV-1 ZM109 envelope-driven cell-cell fusion – HeLa effector, CEM target cells, luciferase, cherry-pick, dose response (AID 652058); assay type: functional, cell-based;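 also: luciferase signal from HIV-1 Env mediated cell-cell fusion of effector and target cells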
HEK293 [8] = experiment: cells; conditions: Homo sapiens; remark: listed apart in the source
[9] = biological target: T2, Mannose-6-phosphate isomerase (Homo sapiens, UniProt P34949); experiment: phosphomannose isomerase inhibition – biochemical, fluorescence intensity, confirmation (AID 1535)
T2 sequence (P34949 whole entry): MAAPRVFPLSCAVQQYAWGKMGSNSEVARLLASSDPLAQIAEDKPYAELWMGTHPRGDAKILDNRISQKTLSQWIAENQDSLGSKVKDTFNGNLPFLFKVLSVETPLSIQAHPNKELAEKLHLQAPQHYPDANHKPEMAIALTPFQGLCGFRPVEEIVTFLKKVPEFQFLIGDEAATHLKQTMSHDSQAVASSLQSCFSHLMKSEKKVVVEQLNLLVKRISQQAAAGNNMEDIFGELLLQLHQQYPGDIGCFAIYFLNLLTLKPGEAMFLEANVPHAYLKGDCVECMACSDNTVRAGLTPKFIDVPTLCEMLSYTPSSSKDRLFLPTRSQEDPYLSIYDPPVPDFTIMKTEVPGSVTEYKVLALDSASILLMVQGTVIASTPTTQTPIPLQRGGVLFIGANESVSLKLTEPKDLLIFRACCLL

Large T antigen = Large T antigen (Simian virus 40, UniProt P03070); assay type: functional, Betapolyomavirus macacae;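 also: Confirmatory-stage PubChem screen for compounds that inhibit SV40 T antigen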
[10] = biological target: T2, Mannose-6-phosphate isomerase; experiment: MPI inhibition at elevated mannose 6-phosphate – biochemical, fluorescence intensity, high mannose 6-phosphate, primary screen (AID 1220)
[11] = biological target: Glucose-6-phosphate 1-dehydrogenase (Homo sapiens, UniProt P11413); experiment: inhibition of Homo sapiens G6PD, dose series – biochemical, fluorescence, selectivity assay for P. falciparum G6PD inhibitor project, dose response (AID 504792); assay type: functional
[12] = THP-1 cell cytotoxicity, dose response, cytotoxicity control for non-replicating M. tuberculosis project (AID 489025); assay type: functional
[13] = biological target: DNA dC->dU-editing enzyme APOBEC-3A (Homo sapiens, UniProt P31941); experiment: A3A deaminase inhibition for selectivity – biochemical, dose response (AID 504722); assay type: functional
[14] = biological target: DNA dC->dU-editing enzyme APOBEC-3G (Homo sapiens, UniProt Q9HC16); experiment: Dose Response confirmation of small molecule APOBEC3G DNA Deaminase Inhibitors via a fluorescence-based single-stranded DNA deaminase assay. [Related pubchem assays (depositor defined):AID493012, AID493028]; assay type: functional
[15] = biological target: T2, Mannose-6-phosphate isomerase; experiment: MPI enzyme activity inhibition – biochemical, fluorescence intensity, coupled assay, primary screen (AID 1209)
Phosphomannomutase 2 = Phosphomannomutase 2 (Homo sapiens, UniProt O15305); experiment: Counter screen SAR assay for PMM2 inhibitors via a fluorescence intensity assay. [Related pubchem assays (depositor defined):AID1545, AID1574]
Phosphomannomutase 2, sequence (O15305 whole entry): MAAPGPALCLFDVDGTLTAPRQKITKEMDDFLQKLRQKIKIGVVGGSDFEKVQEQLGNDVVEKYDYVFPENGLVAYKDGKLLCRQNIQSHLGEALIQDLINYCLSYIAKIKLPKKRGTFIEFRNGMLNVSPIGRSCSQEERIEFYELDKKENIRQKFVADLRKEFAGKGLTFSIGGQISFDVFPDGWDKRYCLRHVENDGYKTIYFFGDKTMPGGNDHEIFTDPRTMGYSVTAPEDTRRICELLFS

DNA dC->dU-editing enzyme APOBEC-3A, sequence (P31941 whole entry): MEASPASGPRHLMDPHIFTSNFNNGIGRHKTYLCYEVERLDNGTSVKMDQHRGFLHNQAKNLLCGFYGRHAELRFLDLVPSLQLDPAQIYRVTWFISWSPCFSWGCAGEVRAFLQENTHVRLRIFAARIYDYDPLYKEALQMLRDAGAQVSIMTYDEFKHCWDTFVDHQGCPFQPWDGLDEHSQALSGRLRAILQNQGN
Large T antigen, sequence (P03070 whole entry): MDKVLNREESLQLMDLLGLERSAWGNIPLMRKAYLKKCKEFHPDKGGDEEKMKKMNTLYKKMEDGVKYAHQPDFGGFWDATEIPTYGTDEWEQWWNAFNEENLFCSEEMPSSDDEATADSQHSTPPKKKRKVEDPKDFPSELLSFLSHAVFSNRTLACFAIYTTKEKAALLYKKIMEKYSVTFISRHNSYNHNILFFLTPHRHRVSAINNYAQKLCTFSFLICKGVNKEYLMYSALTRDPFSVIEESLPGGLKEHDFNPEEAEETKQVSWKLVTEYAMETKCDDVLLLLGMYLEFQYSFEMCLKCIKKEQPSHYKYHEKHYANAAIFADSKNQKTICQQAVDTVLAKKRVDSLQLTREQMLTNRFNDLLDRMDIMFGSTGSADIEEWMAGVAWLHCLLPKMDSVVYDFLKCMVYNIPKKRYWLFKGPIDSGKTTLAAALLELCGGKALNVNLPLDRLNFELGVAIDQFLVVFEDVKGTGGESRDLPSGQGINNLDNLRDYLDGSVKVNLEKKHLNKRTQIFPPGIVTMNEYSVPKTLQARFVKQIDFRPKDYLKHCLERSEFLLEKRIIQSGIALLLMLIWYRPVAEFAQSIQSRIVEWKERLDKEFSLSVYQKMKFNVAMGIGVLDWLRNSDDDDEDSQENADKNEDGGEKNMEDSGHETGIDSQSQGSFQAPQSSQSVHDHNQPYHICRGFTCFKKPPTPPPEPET
Cytochrome P450 2D6, sequence (P10635 whole entry, the tested form may be a part): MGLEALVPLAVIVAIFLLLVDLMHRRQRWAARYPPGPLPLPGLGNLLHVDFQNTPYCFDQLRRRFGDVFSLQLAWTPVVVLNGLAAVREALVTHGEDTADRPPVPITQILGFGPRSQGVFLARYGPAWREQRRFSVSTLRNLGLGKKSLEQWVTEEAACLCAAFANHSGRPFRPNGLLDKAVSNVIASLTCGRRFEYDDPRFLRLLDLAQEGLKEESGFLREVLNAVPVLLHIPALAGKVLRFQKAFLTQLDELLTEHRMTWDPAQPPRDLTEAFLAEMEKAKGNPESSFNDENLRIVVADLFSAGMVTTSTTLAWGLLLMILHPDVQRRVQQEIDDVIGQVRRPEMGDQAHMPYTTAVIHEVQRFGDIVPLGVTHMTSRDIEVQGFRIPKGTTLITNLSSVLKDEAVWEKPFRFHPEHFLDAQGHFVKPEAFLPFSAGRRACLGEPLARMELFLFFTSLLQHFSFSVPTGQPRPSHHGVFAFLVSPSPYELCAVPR
Cytochrome P450 2C9, sequence (P11712 whole entry): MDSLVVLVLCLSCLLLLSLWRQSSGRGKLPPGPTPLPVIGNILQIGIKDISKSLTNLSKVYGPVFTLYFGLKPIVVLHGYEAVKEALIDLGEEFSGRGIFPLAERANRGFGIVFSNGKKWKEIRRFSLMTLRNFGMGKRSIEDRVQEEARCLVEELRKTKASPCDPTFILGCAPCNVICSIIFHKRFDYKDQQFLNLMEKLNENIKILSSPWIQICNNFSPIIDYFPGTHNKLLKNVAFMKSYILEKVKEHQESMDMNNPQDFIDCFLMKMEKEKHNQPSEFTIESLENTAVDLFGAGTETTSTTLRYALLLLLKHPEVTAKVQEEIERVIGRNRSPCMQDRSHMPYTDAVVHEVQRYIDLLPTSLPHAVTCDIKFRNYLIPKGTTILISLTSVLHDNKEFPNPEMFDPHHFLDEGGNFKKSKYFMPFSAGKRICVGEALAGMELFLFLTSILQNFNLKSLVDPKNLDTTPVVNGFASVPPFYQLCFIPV
DNA dC->dU-editing enzyme APOBEC-3G, sequence (Q9HC16 whole entry): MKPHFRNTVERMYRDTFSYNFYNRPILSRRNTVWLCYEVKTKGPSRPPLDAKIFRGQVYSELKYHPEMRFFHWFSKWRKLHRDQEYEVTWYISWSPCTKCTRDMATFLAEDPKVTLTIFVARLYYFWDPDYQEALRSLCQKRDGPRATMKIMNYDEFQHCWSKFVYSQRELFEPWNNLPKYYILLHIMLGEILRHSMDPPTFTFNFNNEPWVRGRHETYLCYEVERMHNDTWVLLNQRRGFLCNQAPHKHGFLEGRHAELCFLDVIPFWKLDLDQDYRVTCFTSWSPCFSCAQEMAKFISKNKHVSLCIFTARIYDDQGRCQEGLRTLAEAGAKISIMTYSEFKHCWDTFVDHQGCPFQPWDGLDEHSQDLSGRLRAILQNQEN
Glucose-6-phosphate 1-dehydrogenase, sequence (P11413 whole entry): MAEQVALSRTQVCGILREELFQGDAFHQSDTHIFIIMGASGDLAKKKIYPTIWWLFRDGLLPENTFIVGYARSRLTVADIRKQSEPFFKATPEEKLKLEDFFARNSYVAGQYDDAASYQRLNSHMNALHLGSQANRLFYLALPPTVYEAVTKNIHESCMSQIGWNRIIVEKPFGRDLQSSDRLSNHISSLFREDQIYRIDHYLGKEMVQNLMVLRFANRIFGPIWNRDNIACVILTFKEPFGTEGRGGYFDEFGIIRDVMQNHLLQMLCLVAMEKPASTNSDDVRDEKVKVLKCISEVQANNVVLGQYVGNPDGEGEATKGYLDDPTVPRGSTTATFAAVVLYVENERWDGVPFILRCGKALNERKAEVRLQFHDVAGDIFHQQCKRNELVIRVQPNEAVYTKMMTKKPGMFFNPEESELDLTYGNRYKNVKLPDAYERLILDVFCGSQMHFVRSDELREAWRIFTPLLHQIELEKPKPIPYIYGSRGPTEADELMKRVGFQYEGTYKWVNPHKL
Cytochrome P450 2C19, sequence (P33261 whole entry): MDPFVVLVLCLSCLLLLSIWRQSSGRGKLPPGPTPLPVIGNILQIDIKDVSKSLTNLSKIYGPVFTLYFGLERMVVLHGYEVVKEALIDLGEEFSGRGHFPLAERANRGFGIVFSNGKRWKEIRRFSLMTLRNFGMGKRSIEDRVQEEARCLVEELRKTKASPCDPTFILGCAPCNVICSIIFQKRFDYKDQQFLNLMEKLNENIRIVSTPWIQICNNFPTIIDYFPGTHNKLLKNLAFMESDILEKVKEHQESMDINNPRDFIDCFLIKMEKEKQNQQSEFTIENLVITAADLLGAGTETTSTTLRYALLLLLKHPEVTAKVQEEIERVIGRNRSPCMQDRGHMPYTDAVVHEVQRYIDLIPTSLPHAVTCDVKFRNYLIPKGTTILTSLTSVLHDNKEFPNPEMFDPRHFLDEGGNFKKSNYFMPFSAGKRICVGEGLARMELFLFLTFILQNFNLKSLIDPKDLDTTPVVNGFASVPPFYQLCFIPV

Which results are given for `CCOc1ccc(/C=C/C(=O)Nc2ccc(OC)cc2[N+](=O)[O-])cc1`?
IC50 [1]: 6.32 µM (active); AC50 (Cytochrome P450 2C9): inconclusive; AC50 (Cytochrome P450 2C19): 39.8 µM (inconclusive); AC50 (Cytochrome P450 2D6): inconclusive; IC50 [2]: 5.84 µM (active)

Which results are given for `CCN(C[C@H]1N[C@@](CC)(C(=O)OC)[C@H]2C(=O)N(Cc3ccccc3)C(=O)[C@@H]12)S(=O)(=O)c1ccc(OC)cc1`?
AC50 [3]: 7.2 µM (active); EC50 (HEK293 [4]): > 59.6 µM (inactive); AC50 [5]: 1.89 µM (active); AC50 [6]: 1.64 µM (active); AC50 [7]: 3.76 µM (active); EC50 (HEK293 [8]): > 59.6 µM (inactive)

For `CCCCSc1nc2c(=S)n(C)c(=O)n(C)c2[nH]1`, which EC50 (HEK293 [4]) is on record?
The EC50 was > 59.5 µM (inactive).

What about the EC50 (HEK293 [8]) of the same compound?
The EC50 was > 59.5 µM (inactive).

With `Cc1ccnc(-n2sc3ccccc3c2=O)n1` as the compound, how does the IC50 [9] read?
The IC50 was 4.43 µM (active).

And the IC50 (Large T antigen)?
Its IC50 is 12.5 µM (active).

What about the IC50 [10] of the same compound?
Its IC50 is 17.8 µM (active).

What about the IC50 [11] of the same compound?
Its IC50 is 36.1 µM (inactive).

And the CC50 [12]?
Its CC50 is > 40 µM (active).

What about the IC50 [13] of the same compound?
Its IC50 is > 100 µM (inactive).

What about the IC50 [14] of the same compound?
Its IC50 is 15.4 µM (active).

And the IC50 [15]?
Its IC50 is 11.2 µM (active).

And the IC50 (Phosphomannomutase 2)?
Its IC50 is 65.9 µM (active).

— ChEMBL document CHEMBL1201862, “PubChem BioAssay data set” (2004)
